Experimental data from patent publication US20180110754A1, “CENICRIVIROC FOR THE TREATMENT OF FIBROSIS” (Tobira Therapeutics, Inc., priority 2015, published 2018).
Each block holds one compound with its values, some of them ahead of it.

Experiments:
[1] = biological target: T1, CCR5 (Homo sapiens, UniProt P51681); assay: Inhibition of chemokine binding to CCR5-expressing CHO cells
[2] = tested on: thioglycollate-induced peritonitis (monocyte/macrophage and leukocyte recruitment); assay: Mouse thioglycollate-induced peritonitis model: peritoneal lavage cell counts, body weight; type: in vivo
Experimental: Summary: The mouse thioglycollate induced peritonitis model is a commonly used preclinical model to assess the recruitment of […] cells and to assess the activation of macrophages.
Dexamethasone was used as a positive control in this experiment as it is a corticosteroid known to reduce inflammation in a variety of animal models. Murine inflammation models indicate that the effective dose range for dexamethasone, when administered orally, is 0.3 to 3 mg/kg QD. On this basis, an intermediate dose of 1 mg/kg was chosen for this particular study.
The lavage was repeated with a second injection of 2.5 mL via the initial puncture site and the samples were pooled for each animal.
The lavage fluid was placed on wet ice pending processing for total and differential cell counts using the Advia analyzer. Following the lavage collection, a blood sample (0.7 mL) was collected from each mouse by intracardiac puncture or from the vena cava (collection time was recorded). 0.5 mL of blood was placed in an EDTA tube, transferred to clinical pathology and analyzed for differential cell counts using the Advia analyzer. 0.2 mL of blood was placed in a K2EDTA tube and processed to plasma. The plasma was collected by centrifugation (3000 rpm for 10 minutes at 4° C.) and placed on dry ice. […] After blood collection, the animals were then exsanguinated by sectioning of the abdominal aorta.
Statistical Analysis: One-way ANOVA with post-hoc Dunnett's statistical analysis was performed on differential cell counts obtained from lavage and blood samples. The analysis was performed in comparison to Group 2.

[3] = Solubility of cenicriviroc mesylate in solvents and aqueous solution; type: physicochemical
Description: In one embodiment, the acid addition salt of cenicriviroc is cenicriviroc mesylate, e.g., (5)-8-[4-(2-Butoxyethoxy)phenyl]-1-isobutyl-N-(4-{[(1-propyl-1H-imidazol-5-yl)methyl]sulfinyl}phenyl)-1,2,3,4-tetrahydro-1-benzazocine-5-carboxamide monomethanesulfonoate. In one embodiment, the cenicriviroc mesylate is a crystalline material, such as a pale greenish-yellow crystalline powder.

[4] = biological target: T2, CCR2 (Homo sapiens, UniProt P41597); assay: MCP-1-induced CCR2 internalization / CCR2 receptor occupancy on monocytes (flow cytometry); type: cell-based
T2 construct: endogenous in cells; host or cells: monocytes within PBMCs from HIV+ and HIV- subjects
T2 sequence (P41597 1-360 isoform P41597-2): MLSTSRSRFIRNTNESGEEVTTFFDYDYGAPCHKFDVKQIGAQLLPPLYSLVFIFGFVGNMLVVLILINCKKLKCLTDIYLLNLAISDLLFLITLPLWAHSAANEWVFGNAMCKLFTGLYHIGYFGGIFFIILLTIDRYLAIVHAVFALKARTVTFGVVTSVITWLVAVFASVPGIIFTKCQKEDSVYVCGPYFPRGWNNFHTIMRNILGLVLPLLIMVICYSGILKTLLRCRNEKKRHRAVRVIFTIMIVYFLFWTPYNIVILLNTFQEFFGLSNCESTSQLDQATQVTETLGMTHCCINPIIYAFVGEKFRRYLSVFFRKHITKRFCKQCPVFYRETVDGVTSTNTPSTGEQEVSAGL
Experimental: (§1) The capacity of each drug to inhibit CCR5 or CCR2 internalization was evaluated. Cell-surface expression of CCR5 and CCR2 was assessed by flow cytometry, and fluorescence values were converted into molecules of equivalent soluble fluorescence (MESF).

[5] = biological target: T1, CCR5; assay: RANTES-induced CCR5 internalization / CCR5 receptor occupancy in PBMCs (flow cytometry); type: cell-based
Experimental: as §1

[6] = tested on: HIV-1 BaL; assay: Intracellular strong-stop HIV DNA in PM-1 cells infected with HIV-1 BaL; type: cell-based; conditions: 4 hrs, CVC 20 nM, MVC 50 nM
Experimental: Both drugs were incubated with PM-1 cells for 1 hr at 37 C prior to the addition of virus. 500 ng of p24 antigen of HIV-1 BaL were incubated per 5×10^5 cells in 1 ml of R10 media. Virus only controls, described as “no cell” in the text, were used to measure viral decay. Viral adsorption was measured in the no-drug controls, whereby 500 ng of p24 Ag of HIV-1 Bal were added per 5×10^5 PM-1 cells that were pre-incubated at 37 C for 1 hr in the absence of drug treatment. Each drug treatment and control was performed in duplicate. Viral RNA was extracted from 140 μl of supernatant fluid using the QIAamp Viral RNA mini kit according to manufacturer's instructions. Samples were stored at −80 C until analysis. Supernatant viral loads were measured using quantitative real-time reverse transcription PCR (qRT-PCR) with the primers US1SSF (5′-[…]-3′), US1SSR (5′-[…]-3′) and US1SS probe (5′-(FAM) […]) and the Invitrogen qRT-PCR Supermix Kit. […] RNA copy number was quantified by use of 10-fold serial dilutions of pBaL/wt to generate standard curves for each assay and calibrated against samples with known copy numbers from previous studies.
Intracellular DNA qPCR. Total DNA was extracted, quantified, and stored at −80 C. Intracellular strong-stop DNA levels were quantified with the US1SS primer/probe set described above. […]

[7] = tested on: HIV-1 BaL; assay: Extracellular virus (viral RNA, p24) in culture fluids of PM-1 cells exposed to HIV-1 BaL; type: cell-based; conditions: 4 hrs post-infection, CVC 20 nM, MVC 50 nM
Description: Cells. PM-1 cells that express CD4, CCR5, and CXCR4 were maintained in RPMI-1640 medium containing 10% fetal bovine serum (R10 medium) at 37C, 5% CO2. 293T cells used for transfection were maintained in DMEM at 10% FBS, L-glutamine, and antibiotics (D10 medium) at 37C, 5% CO2. Virus Stocks. HIV-1 BaL virus was produced by transfecting 293T cells with the plasmid pWT/BaL. Lipofectamine 2000 was used as a transfection agent. Culture supernatants were collected at 48 hrs post-transfection, filtered through a 0.45 μm pore filter, and treated with 50 units of benzonase per ml of virus stock for 20 minutes at 37C to remove contaminating plasmid DNA. Virus stocks were frozen at −80C to halt benzonase activity. Benzonase-treated virus stocks were propagated in cord blood mononuclear cells (CBMCs). CBMCs were stimulated for 72 h with phytohemagluttinin (PHA-M) in R10 medium prior to infection with HIV-1 BaL. The viral amplification culture was subsequently grown in R10 supplemented with interleukin 2 (IL-2) and incubated at 37C, 5% CO2.
Both drugs were incubated with PM-1 cells for 1 hr at 37 C prior to the addition of virus. 500 ng of p24 antigen of HIV-1 BaL were incubated per 5×10^5 cells in 1 ml of R10 media. Virus only controls, described as “no cell” in the text, were used to measure viral decay. Viral adsorption was measured in the no-drug controls, whereby 500 ng of p24 Ag of HIV-1 Bal were added per 5×10^5 PM-1 cells that were pre-incubated at 37 C for 1 hr in the absence of drug treatment. Each drug treatment and control was performed in duplicate. Viral RNA was extracted from 140 μl of supernatant fluid using the QIAamp Viral RNA mini kit according to manufacturer's instructions. Samples were stored at −80 C until analysis. Supernatant viral loads were measured using quantitative real-time reverse transcription PCR (qRT-PCR) with the primers US1SSF (5′-[…]-3′), US1SSR (5′-[…]-3′) and US1SS probe (5′-(FAM) […]) and the Invitrogen qRT-PCR Supermix Kit. Cycling parameters were: 50° C. for 15 minutes, 95° C. for 10 minutes, followed by 50 cycles of 95° C. for 15 seconds, and 60° C. for 1 minute. All values are the result of replicate testing over 2 independent experiments. RNA copy number was quantified by use of 10-fold serial dilutions of pBaL/wt to generate standard curves for each assay and calibrated against samples with known copy numbers from previous studies.

T1 sequence (P51681 whole entry): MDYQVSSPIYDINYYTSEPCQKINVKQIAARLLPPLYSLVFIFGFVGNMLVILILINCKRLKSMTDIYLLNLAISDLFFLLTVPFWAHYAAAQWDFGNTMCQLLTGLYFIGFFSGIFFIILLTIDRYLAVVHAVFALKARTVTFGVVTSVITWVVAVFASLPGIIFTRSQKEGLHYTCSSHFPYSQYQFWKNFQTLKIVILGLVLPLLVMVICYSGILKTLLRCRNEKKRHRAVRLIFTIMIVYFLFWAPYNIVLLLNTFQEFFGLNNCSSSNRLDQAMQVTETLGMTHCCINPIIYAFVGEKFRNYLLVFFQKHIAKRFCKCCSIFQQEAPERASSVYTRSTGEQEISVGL

Compound: C[C@@H]1C[C@H]2[C@@H]3CCC4=CC(=O)C=C[C@]4(C)[C@@]3(F)[C@@H](O)C[C@]2(C)[C@@]1(O)C(=O)CO [Dexamethasone, dexamethasone, reference compound]
Decrease in monocytes in peritoneal lavage vs thioglycollate control ([2]; Group 7, 1 mg/kg oral): 38.1%
Decrease in total leukocyte counts in peritoneal lavage vs thioglycollate control ([2]; Group 7, 1 mg/kg oral): 26.6%
Body weights, Days 1 to 6 ([2]; mouse, in vivo): decreased slightly

Compound: (5)-8-[4-(2-Butoxyethoxy)phenyl]-1-isobutyl-N-(4-{[(1-propyl-1H-imidazol-5-yl)methyl]sulfinyl}phenyl)-1,2,3,4-tetrahydro-1-benzazocine-5-carboxamide monomethanesulfonoate [cenicriviroc mesylate]
Solubility ([3]; 99.5% ethanol): sparingly soluble
Solubility ([3]; acetonitrile, 1-octanol, tetrahydrofuran): slightly soluble
Solubility ([3]; ethyl acetate and diethylether): practically insoluble
Solubility ([3]; glacial acetic acid, methanol, benzyl alcohol, dimethylsulfoxide, N,N-dimethylformamide): freely soluble
Solubility in aqueous solution ([3]; pH 1 to 2): freely soluble
Solubility in aqueous solution ([3]; pH 3): sparingly soluble
Solubility in aqueous solution ([3]; pH 4 to 13 and in water): practically insoluble
Solubility ([3]; pyridine and acetic anhydride): soluble

Compound: Maraviroc [MVC, reference compound]
CCR5 receptor occupancy at saturation ([5]; CD4+ T cells): ~86%
Effective concentration at which saturation of CCR5 was reached ([5]; CD4+ T cells): 12.5 nM
CCR5 receptor occupancy at saturation ([5]; CD8+ T cells): ~87%
Effective concentration at which saturation of CCR5 was reached ([5]; CD8+ T cells): 12.5 nM
Cell-surface expression of CCR5 ([5]; in the absence of RANTES): increased cell-surface expression of CCR5
Relative intracellular strong-stop HIV DNA level compared to no drug control [6]: 0.02
p24 antigen level in culture fluids ([7]; baseline 506 ng/ml): 520 ng/mL
Viral RNA in culture fluids ([7]; baseline 1.19×10^10): 1.67×10^10 copies/ml

Second part, led by results:

IC50, inhibition of RANTES binding to CCR5-expressing cells ([1]; CHO cells): no effect on binding of RANTES
Compound: CCCCOCCOc1ccc(-c2ccc3c(c2)C=C(C(=O)Nc2ccc(SC)cc2)CCCN3CC(C)C)cc1 [M-II]

Concentration required to reach >80% CCR2 receptor occupancy (average) [4]: 18 nM
Compound: CSc1ccc(C(=O)N[C@@H]2CCCC[C@@H]2NC(=O)CNC(=O)c2cc(C(F)(F)F)ccc2NC(=O)NC(C)C)cc1 [BMS-22, reference compound]
CCR2 cell-surface expression ([4]; in the absence of MCP-1): slightly increased CCR2 cell-surface expression

IC50 relative to the IC50 of CVC (RANTES binding to CCR5) [1]: approximately 2 fold
IC50 ([1]; CHO cells, read-out: IC50, inhibition of RANTES binding to CCR5-expressing cells): 6.5 nM
Compound: CCCCOCCOc1ccc(-c2ccc3c(c2)C=C(C(=O)Nc2ccc(S(=O)(=O)Cc4cncn4CCC)cc2)CCCN3CC(C)C)cc1 [M-I]
